Data from PubChem BioAssay AID2060498 (Molecular Pharmacology Branch, DTP, NCI, 2025).

Test system: 171881-019-R-J1-PDC tumor spheroids, viability
Assay: Anticancer human tumor 171881-019-R-J1-PDC patient-derived invasive breast carcinoma cell line growth inhibition [GQUAD]
Conditions: spheroids with HUVEC and MSC; for IC50: curve of first compound; for viability, T/C: stronger effect = lower value
Outline: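 Viability of tumor cells grown as complex spheroids with endothelial and stromal cells, exposed to drug combinations. Top concentration at or near clinical Cmax (else 10 microM), diluted in half-log increments.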

[1] = second compound 0.0316 µM, first compound 0.0316 µM
[2] = second compound 0.0316 µM, first compound 0.316 µM
[3] = second compound 0.1 µM, first compound 0.0316 µM
[4] = second compound 0.1 µM, first compound 0.316 µM
[5] = second compound 0.316 µM, first compound 0.0316 µM
[6] = second compound 0.316 µM, first compound 0.316 µM
[7] = second compound 1 µM, first compound 0.0316 µM
[8] = second compound 1 µM, first compound 0.316 µM
[9] = second compound 3.16 µM, first compound 0.0316 µM
[10] = second compound 3.16 µM, first compound 0.316 µM
[11] = second compound 10 µM, first compound 0.0316 µM
[12] = second compound 10 µM, first compound 0.316 µM
[13] = second compound 0.0316 µM, first compound 0.1 µM
[14] = second compound 0.0316 µM, first compound 1 µM
[15] = second compound 0.0316 µM, first compound 3.16 µM
[16] = second compound 0.0316 µM, first compound 10 µM
[17] = second compound 0.1 µM, first compound 0.1 µM
[18] = second compound 0.1 µM, first compound 1 µM
[19] = second compound 0.1 µM, first compound 3.16 µM
[20] = second compound 0.1 µM, first compound 10 µM
[21] = second compound 0.316 µM, first compound 0.1 µM
[22] = second compound 0.316 µM, first compound 1 µM
[23] = second compound 0.316 µM, first compound 3.16 µM
[24] = second compound 0.316 µM, first compound 10 µM
[25] = second compound 1 µM, first compound 0.1 µM
[26] = second compound 1 µM, first compound 1 µM
[27] = second compound 1 µM, first compound 3.16 µM
[28] = second compound 1 µM, first compound 10 µM
[29] = second compound 3.16 µM, first compound 0.1 µM
[30] = second compound 3.16 µM, first compound 1 µM
[31] = second compound 3.16 µM, first compound 3.16 µM
[32] = second compound 3.16 µM, first compound 10 µM
[33] = second compound 10 µM, first compound 0.1 µM
[34] = second compound 10 µM, first compound 1 µM
[35] = second compound 10 µM, first compound 3.16 µM
[36] = second compound 10 µM, first compound 10 µM
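Throughout, for viability, T/C: 100% = DMSO vehicle control viability.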

Cc1[nH]c2ccccc2c1CCNCc1ccc(/C=C/C(=O)NO)cc1 + Cc1cnc(CNC(=O)c2c(=O)c3ccc(N4CCCN(C)CC4)nc3n3c2sc2ccccc23)cn1
IC50 (second compound 0.0316 µM): 0.0433 µM | IC50 (second compound 0.1 µM): 0.0475 µM | IC50 (second compound 0.316 µM): 0.0434 µM | IC50 (second compound 1 µM): 0.046 µM | IC50 (second compound 3.16 µM): 0.0372 µM | IC50 (second compound 10 µM): 0.0376 µM | viability, T/C (second compound 0.0316 µM, first compound 0.000999 µM): 108% | viability, T/C (second compound 0.0316 µM, first compound 0.00316 µM): 89.9% | viability, T/C (second compound 0.0316 µM, first compound 0.00999 µM): 81.7% | viability, T/C [1]: 61.3% | viability, T/C (second compound 0.0316 µM, first compound 0.0999 µM): 26.1% | viability, T/C [2]: 0.61% | viability, T/C (second compound 0.1 µM, first compound 0.000999 µM): 89.1% | viability, T/C (second compound 0.1 µM, first compound 0.00316 µM): 75.4% | viability, T/C (second compound 0.1 µM, first compound 0.00999 µM): 69.1% | viability, T/C [3]: 66.9% | viability, T/C (second compound 0.1 µM, first compound 0.0999 µM): 24.9% | viability, T/C [4]: 0.91% | viability, T/C (second compound 0.316 µM, first compound 0.000999 µM): 75.3% | viability, T/C (second compound 0.316 µM, first compound 0.00316 µM): 71.1% | viability, T/C (second compound 0.316 µM, first compound 0.00999 µM): 71.2% | viability, T/C [5]: 58.9% | viability, T/C (second compound 0.316 µM, first compound 0.0999 µM): 26.6% | viability, T/C [6]: 0.83% | viability, T/C (second compound 1 µM, first compound 0.000999 µM): 71.9% | viability, T/C (second compound 1 µM, first compound 0.00316 µM): 61.2% | viability, T/C (second compound 1 µM, first compound 0.00999 µM): 64% | viability, T/C [7]: 62.9% | viability, T/C (second compound 1 µM, first compound 0.0999 µM): 23.4% | viability, T/C [8]: 0.22% | viability, T/C (second compound 3.16 µM, first compound 0.000999 µM): 60.9% | viability, T/C (second compound 3.16 µM, first compound 0.00316 µM): 57.4% | viability, T/C (second compound 3.16 µM, first compound 0.00999 µM): 67.8% | viability, T/C [9]: 55.9% | viability, T/C (second compound 3.16 µM, first compound 0.0999 µM): 12.2% | viability, T/C [10]: 0.93% | viability, T/C (second compound 10 µM, first compound 0.000999 µM): 57.4% | viability, T/C (second compound 10 µM, first compound 0.00316 µM): 61.3% | viability, T/C (second compound 10 µM, first compound 0.00999 µM): 57.1% | viability, T/C [11]: 58.1% | viability, T/C (second compound 10 µM, first compound 0.0999 µM): 3.88% | viability, T/C [12]: 0.37%

CCCS(=O)(=O)Nc1ccc(F)c(C(=O)c2c[nH]c3ncc(-c4ccc(Cl)cc4)cc23)c1F + Cc1cnc(CNC(=O)c2c(=O)c3ccc(N4CCCN(C)CC4)nc3n3c2sc2ccccc23)cn1
IC50 (second compound 0.0316 µM): > 10 µM | IC50 (second compound 0.1 µM): > 10 µM | IC50 (second compound 0.316 µM): > 10 µM | IC50 (second compound 1 µM): > 10 µM | IC50 (second compound 3.16 µM): > 10 µM | IC50 (second compound 10 µM): > 10 µM | viability, T/C [1]: 104% | viability, T/C [13]: 95.3% | viability, T/C [2]: 108% | viability, T/C [14]: 112% | viability, T/C [15]: 117% | viability, T/C [16]: 69.3% | viability, T/C [3]: 83% | viability, T/C [17]: 95.2% | viability, T/C [4]: 90.4% | viability, T/C [18]: 102% | viability, T/C [19]: 92.2% | viability, T/C [20]: 54.9% | viability, T/C [5]: 78% | viability, T/C [21]: 78.8% | viability, T/C [6]: 81.9% | viability, T/C [22]: 78.7% | viability, T/C [23]: 91.9% | viability, T/C [24]: 52.1% | viability, T/C [7]: 72.1% | viability, T/C [25]: 66.5% | viability, T/C [8]: 79.5% | viability, T/C [26]: 69.5% | viability, T/C [27]: 82.3% | viability, T/C [28]: 59.6% | viability, T/C [9]: 63.9% | viability, T/C [29]: 61.8% | viability, T/C [10]: 68.5% | viability, T/C [30]: 66.6% | viability, T/C [31]: 67.5% | viability, T/C [32]: 53% | viability, T/C [11]: 59.9% | viability, T/C [33]: 62.1% | viability, T/C [12]: 59.4% | viability, T/C [34]: 68% | viability, T/C [35]: 68.4% | viability, T/C [36]: 51.8%

C=CC(=O)N1CCN(c2nc(=O)n(-c3c(C)ccnc3C(C)C)c3nc(-c4c(O)cccc4F)c(F)cc23)C(C)C1 (stereo not drawn) + CN(C)c1ccc(Nc2c3ccc(NC(=O)CCN4CCCC4)cc3nc3cc(NC(=O)CCN4CCCC4)ccc23)cc1
IC50 (second compound 0.0316 µM): > 10 µM | IC50 (second compound 0.1 µM): > 10 µM | IC50 (second compound 0.316 µM): 7.36 µM | IC50 (second compound 1 µM): < 0.0316 µM | IC50 (second compound 3.16 µM): < 0.0316 µM | IC50 (second compound 10 µM): < 0.0316 µM | viability, T/C [1]: 98.3% | viability, T/C [13]: 104% | viability, T/C [2]: 102% | viability, T/C [14]: 117% | viability, T/C [15]: 99.3% | viability, T/C [16]: 53.5% | viability, T/C [3]: 94.8% | viability, T/C [17]: 115% | viability, T/C [4]: 111% | viability, T/C [18]: 119% | viability, T/C [19]: 96.9% | viability, T/C [20]: 59.3% | viability, T/C [5]: 79.3% | viability, T/C [21]: 75.8% | viability, T/C [6]: 69.8% | viability, T/C [22]: 70% | viability, T/C [23]: 70.6% | viability, T/C [24]: 42.9% | viability, T/C [7]: 19% | viability, T/C [25]: 16% | viability, T/C [8]: 18.6% | viability, T/C [26]: 17.1% | viability, T/C [27]: 15.3% | viability, T/C [28]: 10.2% | viability, T/C [9]: 1.61% | viability, T/C [29]: 1.65% | viability, T/C [10]: 1.29% | viability, T/C [30]: 1.13% | viability, T/C [31]: 2.03% | viability, T/C [32]: 1.73% | viability, T/C [11]: 0.27% | viability, T/C [33]: 0.5% | viability, T/C [12]: 0.42% | viability, T/C [34]: 0.9% | viability, T/C [35]: 0.45% | viability, T/C [36]: 0.56%

O=C(c1cc(Cc2n[nH]c(=O)c3ccccc23)ccc1F)N1CCN(C(=O)C2CC2)CC1 + Cc1[nH]c2ccc(F)cc2c1-c1nc2c3cccnc3c3ncccc3c2[nH]1
IC50 (second compound 0.0316 µM): > 10 µM | IC50 (second compound 0.1 µM): > 10 µM | IC50 (second compound 0.316 µM): > 10 µM | IC50 (second compound 1 µM): > 10 µM | IC50 (second compound 3.16 µM): < 0.0316 µM | IC50 (second compound 10 µM): > 10 µM | viability, T/C [1]: 95.7% | viability, T/C [13]: 105% | viability, T/C [2]: 102% | viability, T/C [14]: 106% | viability, T/C [15]: 99.3% | viability, T/C [16]: 89.3% | viability, T/C [3]: 102% | viability, T/C [17]: 103% | viability, T/C [4]: 96.7% | viability, T/C [18]: 95.7% | viability, T/C [19]: 89.1% | viability, T/C [20]: 80.3% | viability, T/C [5]: 91.7% | viability, T/C [21]: 107% | viability, T/C [6]: 107% | viability, T/C [22]: 96.2% | viability, T/C [23]: 91.6% | viability, T/C [24]: 81.9% | viability, T/C [7]: 86.5% | viability, T/C [25]: 75.6% | viability, T/C [8]: 91.3% | viability, T/C [26]: 80.6% | viability, T/C [27]: 87.2% | viability, T/C [28]: 78.4% | viability, T/C [9]: 27.8% | viability, T/C [29]: 23.5% | viability, T/C [10]: 24.4% | viability, T/C [30]: 31.8% | viability, T/C [31]: 28.9% | viability, T/C [32]: 25.7% | viability, T/C [11]: 55.1% | viability, T/C [33]: 51.2% | viability, T/C [12]: 57.2% | viability, T/C [34]: 60.7% | viability, T/C [35]: 60.5% | viability, T/C [36]: 49.5%
